# Test results reported in patent publication US20230055568A1, “THERAPEUTIC AGENT FOR MYALGIC ENCEPHALOMYELITIS/CHRONIC FATIGUE SYNDROME” (MITSUBISHI TANABE PHARMA CORPORATION, priority 2020, published 2023).
# “Also recorded” adds a separate entry of the source.
# Tested on: water-immersion stress loaded rat (fatigue rat) model
# Assay: weight-loaded forced swimming test in ME/CFS animal model (water-immersion stress loaded fatigue rat)
# Type: in vivo
# Conditions: Slc:SD fatigue rat, compared to fatigue control group, hydrochloride
# Text: A […] encephalomyelitis/chronic fatigue syndrome (ME/CFS)-improving effect by the administration of the compound (amiselimod hydrochloride) relating to the present invention was verified as follows according to the method of Tanaka et al. (Establishment and assessment of a rat model fatigue. Neuroscience letters 2003, 352: 159-162) using a water-immersion stress loaded rat (fatigue rat) model. The animal used was 9-week-old Slc:SD rat. The rats were bred (water-immersion breeding) for 6 days in a plastic cage (W: 445×D: 276×H: 204 mm) containing tap water (water temperature: 23±1° C.) to a height of 1.5 cm, and a weight-loaded forced swimming test was conducted. on the final day. In the weight-loaded forced swimming test, a rat with a weight equivalent to 8% of its body weight attached to its tail was placed in a circular water tank (diameter: 18 cm, height: 70 cm, water depth: 40 cm, water temperature: 23±1° C.), and the time from the start of swimming until the rat's nose sinks from the water surface for 20 seconds was measured. The weight-loaded forced swimming test was conducted blindly. Amiselimod hydrochloride (0.1, 0.3 and 1 mg/kg administration) was orally administered once a day for 6 days from the start date of the water-immersion breeding. As control groups, a normal control group for normal breeding and a fatigue control group for water-immersion breeding were set, and the vehicle (0.5% HPMC) was administered to both groups. The number of cases was 10 in each group.
compound,measurement,setting,value
"CCCCCCCOc1ccc(CCC(N)(CO)CO)cc1C(F)(F)F.Cl [amiselimod hydrochloride, 2-amino-2-[2-(4-heptyloxy-3-trifluoromethylphenyl)ethyl]propane-1,3-diol hydrochloride]",swimming time in weight-loaded forced swimming test,"0.1 mg/kg orally once a day for 6 days, 0.1 mg/kg",significant difference was observed; also recorded: significantly prolonged the swimming time
same,swimming time in weight-loaded forced swimming test,"0.3 mg/kg orally once a day for 6 days, 0.3 mg/kg",significant difference was observed; also recorded: significantly prolonged the swimming time
same,swimming time in weight-loaded forced swimming test,"1 mg/kg orally once a day for 6 days, 1 mg/kg",significant difference was observed; also recorded: significantly prolonged the swimming time
